In patent US20200131669A1, “CYCLIC PEPTIDE COMPOUND HAVING HIGH MEMBRANE PERMEABILITY, AND LIBRARY CONTAINING SAME” (Chugai Seiyaku Kabushiki Kaisha, priority 2017, published 2020):
Starred links: 1 amine or outer side, 2 acyl side, 3 side chain; linkers in the order of their positions; H or OH if unused. Positions of bridges follow the written chain, without caps; N, C: chain ends. Non-standard residues stand in square brackets, D forms with d. Residues, ends and D or L forms follow the SMILES beside them. *: point of attachment. Tyr(3-F) = N[C@@H](Cc1ccc(O)c(F)c1)C(=O)O; NMeW = CN[C@@H](Cc1c[nH]c2ccccc12)C(=O)O; NMeF = CN[C@@H](Cc1ccccc1)C(=O)O; NMeGABA = CN(CCCC(=O)[*:2])[*:1]; NMeI = CC[C@H](C)[C@H](NC)C(=O)O; NMeL = CN[C@@H](CC(C)C)C(=O)O; NMeV = CN[C@H](C(=O)O)C(C)C; NMeA = CN[C@@H](C)C(=O)O; Piperidide = C1CCN(*)CC1; Sar = CNCC(=O)O; tBu = CC(C)(C)*

assay: Caco-2 membrane permeability, improved method as used in the following Examples (96-well, 20 to 24 h preincubation); type: in vitro ADME; details: human, Caco-2, Caco-2 (cm/sec)
Procedure: In the following Examples, membrane permeability was measured in accordance with the improved method established as described above. Specifically, Caco-2 cells were cultured on a 96-well Transwell for three weeks, after which DMEM+FaSSIF (1% DMSO)+compound were added to the apical side and DMEM was added to the basal side, and the cells were preincubated at 5% CO2, 37° C., and 80 rpm for 20 to 24 hours. Following the preincubation, measurement of membrane permeability was initiated by removing the preincubation solution on the apical and basal sides by suction, washing the membrane, and adding FaSSIF/HBSS buffer (1% DMSO) (pH 6.0) containing the compound to the apical side and HBSS buffer (4% BSA) (pH 7.4) to the basal side. Each well was shaken at 5% CO2, 37° C., and 80 rpm, and 180 minutes after the initiation, the sample on the basal side was collected and the permeation amount was measured by LC/MS. The membrane permeability coefficient (Papp) was calculated from the permeation amount. Herein, the terms “Caco-2 (cm/sec)” in the columns in the tables and “Papp (cm/sec)” are used in the same meaning.

Row | SMILES | Papp A→B at 180 min [×10⁻⁶ cm/s]
1 | CC[C@H](C)[C@@H]1NC(=O)[C@H](CC(C)C)N(C)C(=O)CN(C)C(=O)C[C@@H](C(=O)N2CCCCC2)NC(=O)[C@H](C)N(C)C(=O)[C@H](COC(C)(C)C)NC(=O)[C@H](CC(C)C)N(C)C(=O)[C@H](CC(C)C)N(C)C(=O)CN(C)C(=O)[C@H](Cc2c[nH]c3ccccc23)NC(=O)[C@H](CC(C)C)N(C)C1=O [pd103] ([Sar][NMeL]I[NMeL]W[Sar][NMeL][NMeL]S(tBu)[NMeA]D-Piperidide; lactam N-11) | 0.093
2 | CC(C)C[C@H]1C(=O)N(C)[C@@H](Cc2c[nH]c3ccccc23)C(=O)N(C)[C@@H](Cc2ccccc2)C(=O)N[C@@H]([C@@H](C)O)C(=O)N(C)[C@@H](C)C(=O)N(C)[C@@H](CC(C)C)C(=O)N[C@H](C(=O)N2CCCCC2)CC(=O)N(C)[C@@H](C)C(=O)N(C)[C@@H](CC(C)C)C(=O)N(C)[C@@H](CC(C)C)C(=O)N[C@@H](C)C(=O)N1C [pd104] ([NMeA][NMeL][NMeL]A[NMeL][NMeW][NMeF]T[NMeA][NMeL]D-Piperidide; lactam N-11) | 0.025
3 | CC(C)C[C@H]1C(=O)N(C)[C@@H](CC(C)C)C(=O)N(C)[C@@H](Cc2c[nH]c3ccccc23)C(=O)N[C@@H]([C@@H](C)O)C(=O)N(C)[C@@H](C)C(=O)N(C)[C@@H](CC(C)C)C(=O)N[C@H](C(=O)N2CCCCC2)CC(=O)N(C)[C@@H](C)C(=O)N(C)[C@@H](CC(C)C)C(=O)N(C)[C@@H](CC(C)C)C(=O)N[C@@H](C)C(=O)N1C [pd105] ([NMeA][NMeL][NMeL]A[NMeL][NMeL][NMeW]T[NMeA][NMeL]D-Piperidide; lactam N-11) | 0.28
4 | CC(C)C[C@@H]1NC(=O)[C@H](Cc2c[nH]c3ccccc23)N(C)C(=O)[C@@H](C(C)C)NC(=O)C[C@@H](C(=O)N2CCCCC2)NC(=O)[C@H](CC(C)C)N(C)C(=O)[C@H](CC(C)C)N(C)C(=O)[C@H](COC(C)(C)C)NC(=O)[C@H](CC(C)C)N(C)C(=O)CN(C)C(=O)[C@H]([C@@H](C)O)NC(=O)[C@H](CC(C)C)N(C)C1=O [pd106] ([dV][NMeW]L[NMeL]T[Sar][NMeL]S(tBu)[NMeL][NMeL]D-Piperidide; lactam N-11) | 0.36
5 | CC[C@H](C)[C@@H]1NC(=O)[C@H](CC(C)C)N(C)C(=O)CCCN(C)C(=O)C[C@@H](C(=O)N2CCCCC2)NC(=O)[C@H](CC(C)C)N(C)C(=O)[C@H](CC(C)C)N(C)C(=O)[C@H]([C@@H](C)O)NC(=O)[C@H](CC(C)C)N(C)C(=O)[C@H](COC(C)(C)C)NC(=O)[C@H](Cc2c[nH]c3ccccc23)N(C)C(=O)[C@H](Cc2ccccc2)N(C)C1=O [pd107] ([NMeGABA][NMeL]I[NMeF][NMeW]S(tBu)[NMeL]T[NMeL][NMeL]D-Piperidide; lactam N-11) | 0.17
6 | CC[C@H](C)[C@@H]1NC(=O)[C@H](CC(C)C)N(C)C(=O)[C@@H](C)NC(=O)C[C@@H](C(=O)N2CCCCC2)NC(=O)[C@H](C(C)C)N(C)C(=O)[C@H](CC(C)C)N(C)C(=O)[C@H](COC(C)(C)C)NC(=O)[C@H](CC(C)C)N(C)C(=O)CN(C)C(=O)[C@H](Cc2c[nH]c3ccccc23)NC(=O)[C@H](CC(C)C)N(C)C1=O [pd108] ([dA][NMeL]I[NMeL]W[Sar][NMeL]S(tBu)[NMeL][NMeV]D-Piperidide; lactam N-11) | 0.87
7 | CC(C)C[C@H]1C(=O)N(C)[C@@H](Cc2c[nH]c3ccccc23)C(=O)N(C)[C@@H](Cc2ccccc2)C(=O)N[C@@H]([C@@H](C)O)C(=O)N(C)[C@@H](C)C(=O)N(C)[C@@H](CC(C)C)C(=O)N[C@H](C(=O)N2CCCCC2)CC(=O)N(C)[C@@H](C)C(=O)N(C)[C@@H](CC(C)C)C(=O)N(C)[C@@H](CC(C)C)C(=O)N[C@@H](C(C)C)C(=O)N1C [pd109] ([NMeA][NMeL][NMeL]V[NMeL][NMeW][NMeF]T[NMeA][NMeL]D-Piperidide; lactam N-11) | 0.0092
8 | CC[C@H](C)[C@@H]1NC(=O)[C@H](CC(C)C)N(C)C(=O)CCCN(C)C(=O)C[C@@H](C(=O)N2CCCCC2)NC(=O)[C@H](CC(C)C)N(C)C(=O)[C@H](C)N(C)C(=O)[C@H](Cc2c[nH]c3ccccc23)NC(=O)[C@H](CC(C)C)N(C)C(=O)[C@H](COC(C)(C)C)NC(=O)[C@H](CC(C)C)N(C)C(=O)[C@H](CC(C)C)N(C)C1=O [pd110] ([NMeGABA][NMeL]I[NMeL][NMeL]S(tBu)[NMeL]W[NMeA][NMeL]D-Piperidide; lactam N-11) | 0.29
9 | CC[C@H](C)[C@H]1C(=O)N[C@@H]([C@@H](C)O)C(=O)N(C)CC(=O)N(C)[C@@H](CC(C)C)C(=O)N[C@H](C(=O)N2CCCCC2)CC(=O)N(C)[C@@H](CC(C)C)C(=O)N[C@@H](CC(C)C)C(=O)N(C)[C@@H](CC(C)C)C(=O)N(C)[C@@H](Cc2c[nH]c3ccccc23)C(=O)N[C@@H](CC(C)C)C(=O)N(C)[C@@H](Cc2ccccc2)C(=O)N1C [pd111] ([NMeL]L[NMeL][NMeW]L[NMeF][NMeI]T[Sar][NMeL]D-Piperidide; lactam N-11) | 0.16
10 | CC[C@H](C)[C@@H]1NC(=O)[C@H](Cc2ccccc2)N(C)C(=O)[C@@H](C)NC(=O)C[C@@H](C(=O)N2CCCCC2)NC(=O)[C@H](CC(C)C)N(C)C(=O)[C@H](C)N(C)C(=O)[C@H](COC(C)(C)C)NC(=O)[C@H](C)N(C)C(=O)CN(C)C(=O)[C@H](Cc2ccc(O)cc2)NC(=O)[C@H](CC(C)C)N(C)C1=O [pd112] ([dA][NMeF]I[NMeL]Y[Sar][NMeA]S(tBu)[NMeA][NMeL]D-Piperidide; lactam N-11) | 0.11
11 | CC(C)C[C@@H]1NC(=O)[C@H](CC(C)C)N(C)C(=O)[C@H](C)N(C)C(=O)[C@@H](C(C)C)NC(=O)C[C@@H](C(=O)N2CCCCC2)NC(=O)[C@H]([C@@H](C)O)NC(=O)[C@H](C)N(C)C(=O)[C@H](C)N(C)C(=O)[C@H](CC(C)C)N(C)C(=O)[C@H](Cc2ccc(O)c(F)c2)NC(=O)[C@H](Cc2ccccc2)N(C)C1=O [pd113] ([dV][NMeA][NMeL]L[NMeF][Tyr(3-F)][NMeL][NMeA][NMeA]TD-Piperidide; lactam N-11) | 0.029
12 | CC(C)C[C@H]1C(=O)N[C@H](C(=O)N2CCCCC2)CC(=O)N(C)CCCC(=O)N(C)[C@@H](CC(C)C)C(=O)N[C@@H](Cc2ccc(O)c(F)c2)C(=O)N(C)[C@@H](CC(C)C)C(=O)N(C)[C@@H](Cc2ccccc2)C(=O)N[C@@H](COC(C)(C)C)C(=O)N(C)[C@@H](CC(C)C)C(=O)N[C@@H]([C@@H](C)O)C(=O)N(C)CC(=O)N1C [pd114] ([NMeGABA][NMeL][Tyr(3-F)][NMeL][NMeF]S(tBu)[NMeL]T[Sar][NMeL]D-Piperidide; lactam N-11) | 0.17
13 | CC[C@H](C)[C@H]1C(=O)N[C@@H](Cc2ccc(O)cc2)C(=O)N(C)CC(=O)N(C)[C@@H](CC(C)C)C(=O)N[C@H](C(=O)N2CCCCC2)CC(=O)N(C)[C@@H](C)C(=O)N[C@@H](CC(C)C)C(=O)N(C)[C@@H](C)C(=O)N(C)[C@@H](Cc2ccccc2)C(=O)N[C@@H](C(C)C)C(=O)N(C)[C@@H](C)C(=O)N1C [pd116] ([NMeA]L[NMeA][NMeF]V[NMeA][NMeI]Y[Sar][NMeL]D-Piperidide; lactam N-11) | 0.14
